# Tests used:
# A549 cells = system: A549 cells
# Method: NSCLC cell lines (201T and H1975) were transfected with CS3D or CS3M (cyclic STAT3 mutant decoy) at concentrations ranging from 0 nM to 600 nM. Using MTS assays, cell viabilities were assessed 72 hours later. Three independent experiments were performed, using 24-well plates and 4 wells/concentration.
# To determine the concentration of CS3D required to inhibit cell viability, increasing concentrations of CS3D was transfected, and after 72 hours, MTS assays were used to assess cell viability. Data were normalized to cells treated with lipofectamine alone.
# Fluorescently-labeled CS3M and CS3D (with iFluor) were also produced using enzymatic ligation as described above and used to assess uptake efficiency. Transfections of the cyclic oligonucleotides were performed using Lipofectamine 2000 (Life Technologies) in opti-MEM media (Life Technologies) as follows: Cells were plated at […] confluency, and exposed to transfection media containing the respective circularized oligonucleotides for 24 hours at 37° C. […]
# Dose-response experiments assessing the relative number of metabolically active viable cells were performed by transfecting cells with increasing concentrations of CS3D or CS3M, followed by performance of MTS assays. […] The plates were then read at 490 nm in a Synergy microplate reader (BioTek, Winooski, Vermont) using Gen5 2.05 software. […]
# [1] = molecular target: pSTAT3 and total STAT3 in H1975 cells (Homo sapiens, UniProt P40763)
# Chain of pSTAT3 and total STAT3 in H1975 cells (P40763 2-770 limits assumed): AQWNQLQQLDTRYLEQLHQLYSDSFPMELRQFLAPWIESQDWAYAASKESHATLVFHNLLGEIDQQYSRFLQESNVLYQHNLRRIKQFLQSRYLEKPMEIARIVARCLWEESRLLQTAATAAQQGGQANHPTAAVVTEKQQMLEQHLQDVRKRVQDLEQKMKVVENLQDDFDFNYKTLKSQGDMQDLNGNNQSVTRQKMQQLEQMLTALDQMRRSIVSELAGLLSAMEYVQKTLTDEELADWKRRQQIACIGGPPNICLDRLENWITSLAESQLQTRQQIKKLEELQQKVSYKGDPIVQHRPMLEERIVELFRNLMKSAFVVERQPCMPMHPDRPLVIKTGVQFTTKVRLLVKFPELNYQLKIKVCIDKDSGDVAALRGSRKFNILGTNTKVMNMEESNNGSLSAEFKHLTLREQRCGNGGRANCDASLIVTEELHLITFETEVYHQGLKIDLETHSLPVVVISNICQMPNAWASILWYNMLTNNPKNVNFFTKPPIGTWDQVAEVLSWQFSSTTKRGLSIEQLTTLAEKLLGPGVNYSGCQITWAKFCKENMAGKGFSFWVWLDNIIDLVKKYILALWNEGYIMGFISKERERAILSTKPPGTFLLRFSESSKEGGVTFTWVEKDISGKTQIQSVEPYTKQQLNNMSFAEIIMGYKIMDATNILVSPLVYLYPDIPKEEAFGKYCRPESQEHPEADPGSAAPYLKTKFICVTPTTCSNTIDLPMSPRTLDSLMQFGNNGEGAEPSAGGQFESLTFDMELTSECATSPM
# [2] = system: c-Myc in 201T-derived tumors; experiment: c-Myc expression in 201T xenograft tumors (Western blot, RT-qPCR); format: in vivo, nude mice
# H1975 xenografts = experiment: H1975 NSCLC xenograft tumor growth; format: in vivo, nude mice; conditions: 5 mg/kg/d iv, 5 days per week, compared to CS3M
# Method: (§1) Based on the in vitro effects of CS3D, antitumor effects were evaluated in mice harboring established NSCLC xenografts (10 tumors/group). When tumors reached 200 mm3, mice were given daily intravenous injections (tail vein) of CS3D or CS3M (5 mg/kg/d), 5 days per week, and tumor growth was monitored for 14-20 days. CS3D caused a significant and robust tumor growth inhibition in 201T- and H1975-derived xenografts compared to treatment with CS3M.
# (§2) FIGS. 7A and 7B show CS3D suppresses NSCLC xenograft tumor growth. Intravenous delivery of CS3D inhibits tumor growth in both wild-type (FIG. 7A, 201T) and mutant EGFR T790M (FIG. 7B, H1975) xenografts. Approximately 1×10^6 cells were inoculated subcutaneously in the flanks of nude mice. Following the development of palpable tumors (about […]), mice were randomized and given daily injections of either CS3D or CS3M (5 mg/kg/day; 10 tumors/group). Experiments were done twice as biological replicates. Tumor volumes were recorded every other day while animal weights were also monitored during the course of the treatment. […]
# (§3) All studies were approved by the University of Minnesota Institutional Animal Care and Use Committee and were carried out in accordance with institutional guidelines for animal care. […] Volumes were calculated from the formula V=(Length×Width^2)/2. […]
# [3] = system: Myc and Bcl-xL mRNA in NSCLC cells; conditions: 300 nM one transfection, 10 ng/ml EGF, 1 hr after EGF
# 201T xenografts = experiment: 201T NSCLC xenograft tumor growth; format: in vivo, nude mice
# Method: as §1, §2, §3
# [4] = system: K-RAS G12D mutation in tumors; conditions: tumors 20 weeks post treatment, P>0.1
# [5] = system: c-Myc in H1975-derived tumors; experiment: c-Myc expression in H1975 xenograft tumors (Western blot); format: in vivo, nude mice
# Method: FIGS. 7C and 7D show c-Myc is suppressed after CS3D treatment in vivo. At the end of the treatments, tumors were harvested, whole cell lysates were prepared and RNA extracted for target gene analysis by Western blotting and RT-qPCR GAPDH protein was used as internal loading control for immunoblotting. CS3D treated tumors (C4, C5, and C6) from separate animals show a decrease in c-Myc expression level relative to the CS3M-treated group (C1, C2, and C3) in 201T. […] Data are shown as mean+/−SEM.
# To determine how CS3D blocks NSCLC growth, Western blot, qRT-PCR, and immunohistochemical analysis were performed to determine expression of c-Myc in residual tumors. These analyses identified a substantial downregulation of c-Myc protein (FIGS. 7C and 7D) and mRNA levels (FIG. 7E) in individual CS3D-treated tumors relative to CS3M-treated tumors in both 201T and H1975 xenografts. Some variability in protein levels among individual xenografts was observed (FIGS. 7C and 7D); the densitometry units for c-Myc protein after normalizing for GAPDH levels ranged from 0.11-0.16 units for CS3D-treated xenografts and 0.25-0.46 units for CS3M-treated tumors in H1975. Similarly, in 201T-derived tumors these measurements ranged from 0.015 to 0.51 units for CS3D and 0.28 to 0.97 units for CS3M. Even with this variability, the effect across the groups in both cell lines was significant (P<0.05 for H1975 and P<0.042 for 201T xenografts), with a mean decrease of 65% and 70%, respectively.
# [6] = H1975, IL-6 50 ng/mL 1 hr, compared to CS3M or lipofectamine alone
substance,measurement,setting,value
"CS3D (DNA GATTTACGGGAAATGCSCATTTCCC; cyclic decoy with two hexaethylene glycol linkers, further chemistry not given here)",IC50,A549 cells,300 nM
same,reduction in nuclear pSTAT3,[1]; [6],35%
same,reduction in nuclear total STAT3,[1]; [6],35%
same,effect on cytoplasmic pool of total STAT3,"[1]; H1975, IL-6 stimulated",little effect
same,mean decrease of c-Myc protein,"[2]; 201T xenografts, CS3D vs CS3M",70%
same,reduction of c-Myc gene expression (mRNA) relative to GAPDH,"[2]; tumor lysates of 201T and H1975 xenografts (FIG. 7E), compared to CS3M",60-70%
same,reduction in tumor growth (tumor volume),H1975 xenografts,81.7%
same,reduction of Bcl-Xl mRNA expression in response to EGF,[3],≥ 60%
same,reduction of c-Myc mRNA expression in response to EGF,[3],≥ 60%
same,reduction in tumor growth (tumor volume),"201T xenografts; 201T xenograft, 5 mg/kg/d iv, 5 days per week, compared to CS3M",96.5%
same,tumor growth inhibition at 14 days,"201T xenografts; both KRAS WT cell lines (201T and H1975), as reported (Njatcha et al 2017)",over 85%
same,"proportion of tumors positive for K-RAS mutation, CS3D vs CS3M",[4],no significant difference
same,toxicity in normal cells,normal lung fibroblasts,minimal
same,IC50 in normal lung fibroblasts and bronchial epithelial cells relative to tumor cells,normal lung fibroblasts; fold higher than in NSCLC cell lines,100 fold
same,c-Myc protein densitometry normalized for GAPDH,"[5]; H1975 xenograft tumors, range among individual tumors",0.11-0.16 units
same,mean decrease of c-Myc protein,"[5]; H1975 xenografts, CS3D vs CS3M",65%
